Results: BigSolDB 2.1

NC(=O)c1ccncc1
solubility (mole fraction)
Settings	278.15 K	283.15 K	288.15 K	293.15 K	298.15 K	303.15 K	308.15 K	313.15 K	318.15 K	323.15 K
in DMAc	0.114	0.129	0.147	0.168	0.19	0.213	0.236	0.256	0.278	0.299
in DMF	0.13	0.135	0.147	0.157	0.17	0.181	0.193	0.208	0.221	0.24
in THF	0.0108	0.012	0.0143	0.0167	0.0194	0.0218	0.0247	0.0276	0.0308	0.0344
in acetone	0.00012	0.00014	0.00017	0.00021	0.00025	0.00029	0.00034	0.00039	0.00047	0.00057
in acetonitrile	0.00251	0.00313	0.00392	0.00473	0.00572	0.00695	0.00841	0.0102	0.0125	0.0152
in ethanol	0.0191	0.0221	0.0266	0.0307	0.0347	0.0407	0.0461	0.0548	0.0664	0.0796
in ethyl acetate	0.00272	0.00341	0.00414	0.00504	0.0062	0.00754	0.0105	0.0138	0.0172	0.0218
in isopropanol	0.0156	0.0182	0.0211	0.0253	0.0291	–	–	–	–	–
